Bounds are passed on as bounds.

Targets include Histamine H3 receptor (Homo sapiens, UniProt Q9Y5N1); Histamine H1 receptor (Homo sapiens, UniProt P35367); Vasopressin V1a receptor (Homo sapiens, UniProt P37288).
In the next assay the target is T1, Adenosine receptor A1 (Homo sapiens, UniProt P30542).
T1 sequence (P30542 whole entry): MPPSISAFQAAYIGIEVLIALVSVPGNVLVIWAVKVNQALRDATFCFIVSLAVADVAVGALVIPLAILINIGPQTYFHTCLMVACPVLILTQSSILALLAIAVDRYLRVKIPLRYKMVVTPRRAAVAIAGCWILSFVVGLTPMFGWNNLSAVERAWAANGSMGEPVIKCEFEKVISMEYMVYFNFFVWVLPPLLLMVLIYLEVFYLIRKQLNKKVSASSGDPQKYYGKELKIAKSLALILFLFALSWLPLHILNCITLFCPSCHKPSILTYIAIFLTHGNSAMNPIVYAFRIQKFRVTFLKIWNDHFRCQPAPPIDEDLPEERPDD

Assay [1] concerns the target T2, Alpha-2A adrenergic receptor (Homo sapiens, UniProt P08913).
T2 sequence (P08913 whole entry): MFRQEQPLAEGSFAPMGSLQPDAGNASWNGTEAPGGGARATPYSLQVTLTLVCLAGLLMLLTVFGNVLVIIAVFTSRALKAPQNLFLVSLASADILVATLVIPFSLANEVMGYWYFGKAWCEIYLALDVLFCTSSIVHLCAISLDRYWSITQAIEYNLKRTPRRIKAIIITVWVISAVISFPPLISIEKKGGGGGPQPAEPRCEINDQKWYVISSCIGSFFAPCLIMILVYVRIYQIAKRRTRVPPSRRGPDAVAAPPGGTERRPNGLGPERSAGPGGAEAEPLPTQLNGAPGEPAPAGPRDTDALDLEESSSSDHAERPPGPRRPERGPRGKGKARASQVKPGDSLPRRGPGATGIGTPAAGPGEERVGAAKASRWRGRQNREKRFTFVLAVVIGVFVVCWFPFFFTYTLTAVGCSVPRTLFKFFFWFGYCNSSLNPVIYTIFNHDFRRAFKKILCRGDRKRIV
Format: functional, cell-based.

The target in another assay is T3, B2 bradykinin receptor (Homo sapiens, UniProt P30411).
T3 sequence (P30411 whole entry): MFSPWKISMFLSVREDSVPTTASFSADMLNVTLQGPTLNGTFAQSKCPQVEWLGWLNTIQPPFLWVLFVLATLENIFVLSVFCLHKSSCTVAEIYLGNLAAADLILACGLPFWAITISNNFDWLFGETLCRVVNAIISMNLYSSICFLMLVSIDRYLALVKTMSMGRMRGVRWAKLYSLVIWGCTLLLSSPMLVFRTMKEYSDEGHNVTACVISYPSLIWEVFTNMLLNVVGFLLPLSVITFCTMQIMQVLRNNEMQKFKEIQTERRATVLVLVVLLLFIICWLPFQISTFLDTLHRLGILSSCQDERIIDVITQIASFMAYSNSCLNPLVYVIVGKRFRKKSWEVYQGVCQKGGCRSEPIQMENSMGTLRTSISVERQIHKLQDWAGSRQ

Assay [2] has as its target T4, Cholecystokinin receptor type A (Homo sapiens, UniProt P32238).
T4 sequence (P32238 whole entry): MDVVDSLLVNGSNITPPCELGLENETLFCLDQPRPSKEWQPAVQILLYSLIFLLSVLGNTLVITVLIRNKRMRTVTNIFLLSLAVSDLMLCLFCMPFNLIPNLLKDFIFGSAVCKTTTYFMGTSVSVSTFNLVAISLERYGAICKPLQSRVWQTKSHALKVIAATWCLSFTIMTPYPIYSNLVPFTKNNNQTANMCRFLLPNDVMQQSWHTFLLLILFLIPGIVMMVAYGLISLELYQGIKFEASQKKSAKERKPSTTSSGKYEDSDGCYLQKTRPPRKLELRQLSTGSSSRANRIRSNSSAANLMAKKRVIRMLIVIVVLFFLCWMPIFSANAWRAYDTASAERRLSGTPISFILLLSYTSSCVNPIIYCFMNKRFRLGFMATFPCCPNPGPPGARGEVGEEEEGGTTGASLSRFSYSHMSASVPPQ

Assay [3] has as its target Neuronal acetylcholine receptor subunit alpha-4 (Homo sapiens, UniProt P43681).
For assay [4], the target named is Glutamate receptor ionotropic, NMDA 1 (Rattus norvegicus, UniProt P35439).
Assay [5] addresses 5-hydroxytryptamine receptor 2B (Homo sapiens, UniProt P41595). It is filed as functional, cell-based.
The target in assay [6] is cGMP-inhibited 3',5'-cyclic phosphodiesterase 3A (Homo sapiens, UniProt Q14432). It is filed as functional.
Assay [7] concerns the target T5, Equilibrative nucleoside transporter 1 (Homo sapiens, UniProt Q99808).
T5 sequence (Q99808 whole entry): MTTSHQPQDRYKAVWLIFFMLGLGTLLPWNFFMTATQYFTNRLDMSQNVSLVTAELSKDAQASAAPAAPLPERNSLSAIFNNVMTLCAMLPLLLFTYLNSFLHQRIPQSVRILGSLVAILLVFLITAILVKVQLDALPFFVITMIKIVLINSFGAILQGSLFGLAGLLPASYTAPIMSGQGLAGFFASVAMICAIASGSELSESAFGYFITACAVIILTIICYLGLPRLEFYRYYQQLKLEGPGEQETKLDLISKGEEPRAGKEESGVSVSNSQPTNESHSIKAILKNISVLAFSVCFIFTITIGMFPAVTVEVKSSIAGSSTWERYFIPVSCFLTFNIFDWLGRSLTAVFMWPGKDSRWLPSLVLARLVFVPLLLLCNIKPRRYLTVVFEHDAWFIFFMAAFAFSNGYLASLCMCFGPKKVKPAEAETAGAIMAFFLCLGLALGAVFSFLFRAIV

Assay [8] concerns the target Voltage-dependent L-type calcium channel subunit alpha-1C (Rattus norvegicus, UniProt P22002). It is filed as functional.
Note: assay procedure not described here.

Sequence of Histamine H3 receptor (Q9Y5N1 whole entry): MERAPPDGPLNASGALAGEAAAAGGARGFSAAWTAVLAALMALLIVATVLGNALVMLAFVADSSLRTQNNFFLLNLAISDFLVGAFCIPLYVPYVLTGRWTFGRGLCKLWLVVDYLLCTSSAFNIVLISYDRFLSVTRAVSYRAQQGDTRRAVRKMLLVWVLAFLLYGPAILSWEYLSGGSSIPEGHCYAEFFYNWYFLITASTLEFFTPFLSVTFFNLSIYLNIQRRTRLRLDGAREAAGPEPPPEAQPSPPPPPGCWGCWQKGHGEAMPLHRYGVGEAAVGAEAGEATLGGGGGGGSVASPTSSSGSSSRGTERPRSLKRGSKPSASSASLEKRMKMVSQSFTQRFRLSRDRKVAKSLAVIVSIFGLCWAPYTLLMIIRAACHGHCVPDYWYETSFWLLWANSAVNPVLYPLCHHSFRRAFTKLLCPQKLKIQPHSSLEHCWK
Sequence of Neuronal acetylcholine receptor subunit alpha-4 (P43681 whole entry): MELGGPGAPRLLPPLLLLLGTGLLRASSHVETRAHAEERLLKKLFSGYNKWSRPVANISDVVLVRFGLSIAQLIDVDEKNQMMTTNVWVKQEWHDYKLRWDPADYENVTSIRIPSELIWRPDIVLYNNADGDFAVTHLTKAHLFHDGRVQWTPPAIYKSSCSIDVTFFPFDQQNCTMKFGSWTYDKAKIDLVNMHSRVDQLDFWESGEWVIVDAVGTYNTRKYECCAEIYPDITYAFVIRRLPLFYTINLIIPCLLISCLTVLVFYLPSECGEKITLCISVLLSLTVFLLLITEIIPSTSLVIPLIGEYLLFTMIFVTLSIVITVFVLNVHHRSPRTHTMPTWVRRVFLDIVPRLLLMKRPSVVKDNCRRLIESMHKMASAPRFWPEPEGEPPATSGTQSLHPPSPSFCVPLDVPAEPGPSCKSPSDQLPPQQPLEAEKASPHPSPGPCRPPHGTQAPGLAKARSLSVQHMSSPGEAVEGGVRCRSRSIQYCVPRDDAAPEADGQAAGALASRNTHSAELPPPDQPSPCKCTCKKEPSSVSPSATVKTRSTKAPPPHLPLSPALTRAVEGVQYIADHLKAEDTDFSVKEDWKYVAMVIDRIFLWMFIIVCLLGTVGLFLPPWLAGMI
Sequence of 5-hydroxytryptamine receptor 2B (P41595 whole entry): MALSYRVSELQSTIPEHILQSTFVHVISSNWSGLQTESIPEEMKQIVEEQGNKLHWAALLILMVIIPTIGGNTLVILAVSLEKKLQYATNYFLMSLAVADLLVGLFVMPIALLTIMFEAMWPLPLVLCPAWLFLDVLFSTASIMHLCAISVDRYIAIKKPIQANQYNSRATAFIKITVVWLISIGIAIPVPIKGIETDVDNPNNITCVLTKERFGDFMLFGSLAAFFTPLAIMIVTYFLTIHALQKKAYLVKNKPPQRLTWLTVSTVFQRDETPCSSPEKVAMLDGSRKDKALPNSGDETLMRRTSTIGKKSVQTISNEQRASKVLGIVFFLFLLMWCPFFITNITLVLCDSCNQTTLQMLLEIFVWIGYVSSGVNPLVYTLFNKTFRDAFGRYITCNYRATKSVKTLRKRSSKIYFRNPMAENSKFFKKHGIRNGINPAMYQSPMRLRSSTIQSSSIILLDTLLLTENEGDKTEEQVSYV
Sequence of cGMP-inhibited 3',5'-cyclic phosphodiesterase 3A (Q14432 whole entry): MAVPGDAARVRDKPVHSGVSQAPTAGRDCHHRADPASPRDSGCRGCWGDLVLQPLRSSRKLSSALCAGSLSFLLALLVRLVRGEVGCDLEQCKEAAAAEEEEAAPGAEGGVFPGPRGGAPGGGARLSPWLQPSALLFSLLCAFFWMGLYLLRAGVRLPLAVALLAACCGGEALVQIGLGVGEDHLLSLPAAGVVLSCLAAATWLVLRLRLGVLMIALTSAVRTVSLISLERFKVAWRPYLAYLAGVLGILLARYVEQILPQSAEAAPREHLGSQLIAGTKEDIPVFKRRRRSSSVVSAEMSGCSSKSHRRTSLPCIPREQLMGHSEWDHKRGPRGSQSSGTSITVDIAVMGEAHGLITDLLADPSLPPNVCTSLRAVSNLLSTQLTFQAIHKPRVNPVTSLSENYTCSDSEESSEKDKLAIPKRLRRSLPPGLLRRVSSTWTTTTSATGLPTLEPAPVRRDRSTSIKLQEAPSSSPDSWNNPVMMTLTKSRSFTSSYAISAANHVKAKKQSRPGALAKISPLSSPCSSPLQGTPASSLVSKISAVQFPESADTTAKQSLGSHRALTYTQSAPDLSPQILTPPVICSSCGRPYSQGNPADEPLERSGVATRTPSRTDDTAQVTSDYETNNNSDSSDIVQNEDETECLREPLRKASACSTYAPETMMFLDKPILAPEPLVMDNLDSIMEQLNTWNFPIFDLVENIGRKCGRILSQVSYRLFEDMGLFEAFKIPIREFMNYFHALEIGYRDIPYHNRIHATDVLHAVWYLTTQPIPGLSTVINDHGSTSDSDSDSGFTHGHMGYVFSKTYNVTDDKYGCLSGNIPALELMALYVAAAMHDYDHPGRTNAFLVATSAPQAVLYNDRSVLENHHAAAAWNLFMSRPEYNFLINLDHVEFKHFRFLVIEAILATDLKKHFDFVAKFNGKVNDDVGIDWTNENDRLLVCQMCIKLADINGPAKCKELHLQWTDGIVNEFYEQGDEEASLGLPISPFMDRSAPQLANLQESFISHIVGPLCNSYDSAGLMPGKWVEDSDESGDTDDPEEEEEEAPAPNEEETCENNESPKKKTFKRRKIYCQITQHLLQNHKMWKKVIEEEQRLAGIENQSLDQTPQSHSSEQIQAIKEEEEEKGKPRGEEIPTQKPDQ
Sequence of Vasopressin V1a receptor (P37288 whole entry): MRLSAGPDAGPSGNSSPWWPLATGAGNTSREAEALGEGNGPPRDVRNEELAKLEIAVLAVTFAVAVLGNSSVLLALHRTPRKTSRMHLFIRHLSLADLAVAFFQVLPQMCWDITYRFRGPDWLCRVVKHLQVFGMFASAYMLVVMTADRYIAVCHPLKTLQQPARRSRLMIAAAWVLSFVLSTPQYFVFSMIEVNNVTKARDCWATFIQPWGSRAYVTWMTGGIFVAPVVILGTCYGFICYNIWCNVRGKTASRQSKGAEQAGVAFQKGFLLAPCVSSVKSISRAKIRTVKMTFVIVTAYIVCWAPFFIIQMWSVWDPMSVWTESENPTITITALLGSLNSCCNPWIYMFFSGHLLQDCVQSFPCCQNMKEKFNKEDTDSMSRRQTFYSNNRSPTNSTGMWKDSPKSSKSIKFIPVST
Sequence of Histamine H1 receptor (P35367 whole entry): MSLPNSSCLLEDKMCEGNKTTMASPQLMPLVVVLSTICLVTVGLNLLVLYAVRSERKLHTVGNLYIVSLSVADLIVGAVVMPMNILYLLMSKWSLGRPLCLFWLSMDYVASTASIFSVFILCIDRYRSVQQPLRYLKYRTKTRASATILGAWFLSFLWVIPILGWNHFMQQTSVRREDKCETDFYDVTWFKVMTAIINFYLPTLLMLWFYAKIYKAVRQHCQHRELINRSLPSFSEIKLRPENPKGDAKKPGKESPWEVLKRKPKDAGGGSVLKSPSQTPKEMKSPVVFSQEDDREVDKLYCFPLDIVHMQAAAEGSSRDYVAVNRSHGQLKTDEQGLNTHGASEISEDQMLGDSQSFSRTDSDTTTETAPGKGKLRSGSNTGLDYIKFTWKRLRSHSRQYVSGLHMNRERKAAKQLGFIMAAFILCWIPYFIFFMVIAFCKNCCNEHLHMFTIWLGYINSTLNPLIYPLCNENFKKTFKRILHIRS

In the case of `NC(=O)CN1CCCC1=O`, the AC50 (at Adenosine receptor A1; in assay [1]; on B2 bradykinin receptor; in assay [2]; in [3]; in assay [4]) was more than 30 µM throughout. Also, the AC50 (in [5]; in assay [6]; at Histamine H3 receptor) was more than 30 µM in each case.
As for `CCN1CCCC1CNC(=O)c1cc(S(=O)(=O)CC)c(N)cc1OC` (stereo not drawn) [AMISULPRIDE], the AC50 at Adenosine receptor A1 is more than 30 µM; in [1], more than 30 µM; on B2 bradykinin receptor, more than 30 µM; in [3] it was more than 30 µM; in [4] it was more than 30 µM; at Histamine H1 receptor, 30 µM. Besides, the half-maximal activity concentration (AC50) in assay [7] is more than 30 µM; in assay [6] it was more than 30 µM; at Histamine H3 receptor, 12 µM.
For `O=C(O)CCNC(=O)c1ccccc1` [BETAMIPRON], the half-maximal activity concentration (AC50) (at Adenosine receptor A1; in [1]; at B2 bradykinin receptor; in assay [8]; in [2]; in assay [3]) was more than 30 µM throughout. For the same molecule, the AC50 (in [4]; in assay [5]; in [7]; in assay [6]; on Histamine H3 receptor) was more than 30 µM throughout.
Consider `Oc1ccc2c(c1)[C@@]13CCCC[C@@]1(O)[C@@H](C2)N(CC1CCC1)CC3` [BUTORPHANOL], for which the AC50 (at Adenosine receptor A1; in assay [1]; at Vasopressin V1a receptor; on B2 bradykinin receptor; in assay [2]; in [3]) was more than 30 µM each time. For the same molecule, the concentration at half-maximal activity (AC50) (in [4]; on Histamine H1 receptor; in assay [5]; in assay [7]; in assay [6]; on Histamine H3 receptor) was more than 30 µM each time.
With `COc1cc2ncnc(Nc3ccc(F)c(Cl)c3)c2cc1NC(=O)/C=C/CN1CCCCC1` [DACOMITINIB ANHYDROUS], the concentration at half-maximal activity (AC50) (in [3]; on Histamine H1 receptor; in assay [6]) was more than 30 µM in each case.
With `CCN(CC)CCN1C(=O)CN=C(c2ccccc2F)c2cc(Cl)ccc21` [FLURAZEPAM], the AC50 at Adenosine receptor A1 is more than 30 µM; in assay [1], more than 10 µM; at B2 bradykinin receptor, more than 30 µM; in [8], more than 10 µM; in assay [2], more than 30 µM; in assay [3], more than 10 µM. Moreover, the concentration at half-maximal activity (AC50) in assay [4] is more than 10 µM; on Histamine H1 receptor, more than 10 µM; in [5], more than 10 µM; in assay [7], more than 30 µM; in assay [6], more than 30 µM; on Histamine H3 receptor, more than 10 µM.
Consider `CC(=O)[C@]1(O)Cc2c(O)c3c(c(O)c2[C@@H](O[C@H]2C[C@H](N)[C@H](O)[C@H](C)O2)C1)C(=O)c1ccccc1C3=O` [IDARUBICIN], for which the concentration at half-maximal activity (AC50) was more than 10 µM on Adenosine receptor A1; more than 30 µM on Vasopressin V1a receptor; more than 10 µM on B2 bradykinin receptor; more than 30 µM in [8]; more than 10 µM in [2]; more than 30 µM in [3]. The half-maximal activity concentration (AC50) (in assay [4]; in [7]; in [6]; on Histamine H3 receptor) was more than 30 µM throughout.
Take `Nc1cc(-c2ccncc2)c[nH]c1=O` [INAMRINONE]: the AC50 was more than 30 µM at Adenosine receptor A1; more than 10 µM in assay [1]; more than 30 µM at B2 bradykinin receptor; more than 10 µM in assay [8]; more than 30 µM in assay [2]; more than 10 µM in assay [3]. The AC50 in assay [4] is more than 10 µM; in [5] it was more than 10 µM; in [7] it was more than 30 µM; at Histamine H3 receptor, more than 10 µM.
With `Cc1ncc2n1-c1ccc(Cl)cc1C(c1ccccc1F)=NC2` [MIDAZOLAM], the AC50 on Adenosine receptor A1 is more than 30 µM; in assay [1], more than 10 µM; on B2 bradykinin receptor, more than 30 µM; in assay [8] it was more than 10 µM; in assay [2] it was more than 30 µM; in assay [3] it was more than 10 µM. Moreover, the AC50 in assay [4] was more than 10 µM; at Histamine H1 receptor it was more than 10 µM; in assay [5], more than 10 µM; in assay [7] it was more than 30 µM; in assay [6], more than 30 µM; on Histamine H3 receptor, more than 10 µM.
On to `O=C1CN=C(c2ccccc2)c2cc([N+](=O)[O-])ccc2N1` [NITRAZEPAM], for which the AC50 (on Adenosine receptor A1; in [1]; at B2 bradykinin receptor; in assay [8]; in assay [2]; in [3]) was more than 10 µM each time. Also, the concentration at half-maximal activity (AC50) was more than 10 µM in assay [4], more than 10 µM in [5], more than 10 µM in assay [7] and more than 30 µM in [6].
Take `CN(C(=O)c1c(O)c2ccccc2n(C)c1=O)c1ccccc1` [ROQUINIMEX]: the AC50 (in assay [3]; at Histamine H1 receptor; in assay [6]) was more than 30 µM each time.
Take `Cn1cnc2c(F)c(Nc3ccc(Br)cc3Cl)c(C(=O)NOCCO)cc21` [SELUMETINIB]: the AC50 in [3] was more than 10 µM; at Histamine H1 receptor, more than 10 µM; in [7], more than 30 µM; in assay [6] it was more than 30 µM.
For `CCN(CC)CCNC(=O)c1cc(S(C)(=O)=O)ccc1OC` [TIAPRIDE], the AC50 (on Adenosine receptor A1; in [1]; on Vasopressin V1a receptor; at B2 bradykinin receptor; in [8]; in assay [2]) was more than 30 µM throughout. Besides, the AC50 (in assay [3]; in [4]; in [5]; in assay [7]; in assay [6]; at Histamine H3 receptor) was more than 30 µM each time.
As to `NC1CCN(c2nc3c(cc2F)c(=O)c(C(=O)O)cn3-c2ccc(F)cc2F)C1` (stereo not drawn) [TOSUFLOXACIN], the AC50 (at Adenosine receptor A1; in [1]; on B2 bradykinin receptor; in assay [8]; in [2]; in assay [3]) was more than 30 µM throughout. Further, the AC50 (in assay [4]; in assay [5]; in assay [7]; in [6]; at Histamine H3 receptor) was more than 30 µM throughout.

By AC50 is commonly meant the concentration giving half of the maximal activity seen.

(Values after ChEMBL document CHEMBL5291721, “A preclinical secondary pharmacology resource illuminates target-adverse drug reaction associations of marketed drugs” (Nat Commun, 2023).)
